Assay [1] deals with T1, hVR1 receptor (Homo sapiens, UniProt Q8NER1).
T1 construct: expressed in transfected cells; host or cells: HEK 293 (HEK 293-hVR1, zeocin-selected); membranes
The class given is binding. The following applies: pH 8.

Assay [2] addresses T1, hVR1 receptor. The class given is binding. The following applies: for Kd: read-out: Kd of [^3H]RTX binding to hVR1 receptor.
The target in assay [3] is T1, hVR1 receptor. The following applies: read-out: IC50, inhibition of [^3H]RTX binding to hVR1 receptor.

Like-named read-outs stand apart in the source and are kept apart here.

T1 sequence (Q8NER1 whole entry): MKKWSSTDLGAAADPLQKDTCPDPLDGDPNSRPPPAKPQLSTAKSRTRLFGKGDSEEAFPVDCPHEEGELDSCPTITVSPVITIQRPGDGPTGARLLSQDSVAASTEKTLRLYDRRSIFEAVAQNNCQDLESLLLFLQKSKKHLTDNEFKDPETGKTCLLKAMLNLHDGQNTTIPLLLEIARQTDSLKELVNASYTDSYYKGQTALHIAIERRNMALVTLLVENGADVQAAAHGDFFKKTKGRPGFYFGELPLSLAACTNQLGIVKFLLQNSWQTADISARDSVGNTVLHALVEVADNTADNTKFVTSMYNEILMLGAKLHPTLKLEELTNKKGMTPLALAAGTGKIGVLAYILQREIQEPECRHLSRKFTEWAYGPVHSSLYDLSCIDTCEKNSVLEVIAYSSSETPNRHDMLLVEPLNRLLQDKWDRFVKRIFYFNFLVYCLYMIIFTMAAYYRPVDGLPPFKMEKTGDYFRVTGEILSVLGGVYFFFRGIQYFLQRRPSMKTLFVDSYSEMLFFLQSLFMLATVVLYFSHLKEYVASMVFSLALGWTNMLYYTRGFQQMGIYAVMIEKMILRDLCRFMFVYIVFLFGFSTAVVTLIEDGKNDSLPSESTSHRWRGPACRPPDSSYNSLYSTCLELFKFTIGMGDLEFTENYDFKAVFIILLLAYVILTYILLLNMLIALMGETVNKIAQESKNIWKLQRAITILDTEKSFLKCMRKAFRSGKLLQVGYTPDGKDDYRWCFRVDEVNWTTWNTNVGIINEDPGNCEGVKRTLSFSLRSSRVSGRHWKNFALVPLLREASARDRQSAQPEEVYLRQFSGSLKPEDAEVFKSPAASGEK

Consider `O=C(O)CN(CCOCCOCCN(CC(=O)O)CC(=O)O)CC(=O)O` [EGTA], for which the “inhibition of [^3H]RTX binding” value in assay [1] turned out to be 70%.
Turning to `C=C(C)[C@]12C[C@@H](C)[C@@]34O[C@](Cc5ccccc5)(O[C@@H]1[C@@H]3C=C(COC(=O)Cc1ccc(O)c(OC)c1)C[C@]1(O)C(=O)C(C)=C[C@@H]41)O2` [[^3H]RTX, [^3H]resiniferatoxin], the Kd in assay [2] (pH 5.1) was 6.62 ± 5.58 nM; in assay [2] (pH 7.4), 0.65 ± 0.12 nM; in assay [2] (pH 8.6), 0.18 ± 0.04 nM; in assay [2] (pH 9.6) it was 0.6 ± 0.31 nM. In addition, the “Bmax of [^3H]RTX binding to hVR1 receptor” value is listed as 928 ± 53 fmol/mg protein in assay [2] (pH 7.4), 869 ± 41 fmol/mg protein in assay [2] (pH 8.6) and 661 ± 127 fmol/mg protein in assay [2] (pH 9.6).
As for `C=C(C)[C@]12C[C@@H](C)[C@@]34O[C@](Cc5ccccc5)(O[C@@H]1[C@@H]3C=C(COC(=O)Cc1ccc(O)c(OC)c1)C[C@]1(O)C(=O)C(C)=C[C@@H]41)O2` [Resiniferatoxin], the IC50 in assay [3] (pH 7.4) is 0.78 ± 0.15 nM; in assay [3] (pH 8.6) it was 0.25 ± 0.03 nM.

For the origin of these results see patent publication US6780650B2 (priority 2000, dated 2004).
